# Article PMC10979747 (Journal of the American Chemical Society, 2024)
# Numbered stars: 1 amine (or outer) side, 2 acyl side, 3 side chain; on linkers, the order of the positions; unused ones are H or OH. Bridge positions count the residues as written; N and C are the ends. Square brackets hold non-standard residues; d marks the D form. Peptide text beside a SMILES is read from it. X1 = C=C(N[*:2])c1nc(-c2nc(-c3nc(C(=O)OC)cs3)ccc2C(=O)[*:1])cs1; Dha = C=C(N)C(=O)O
# Assay: Serum stability assay (LC/MS against internal standard)
# Conditions: human, human serum diluted in TBS, pH 7.6
# Experimental: The ratio of areas under the peak for the intact analyte over the internal standard (EIC
# chromatograms generated with m/z ± 3 cutoff values) were used to calculate the extent of
# analyte degradation. Thiopeptide half-life values were obtained from non-linear regression
# (scipy)15 of experimentally measured values to the standard first order kinetic decomposition
# Serum stability assay. To a solution of analyte thiopeptide (13.3 µM) and the internal
# standard peptide in TBS [5 µM; buffer: 50 mM Tris (pH 7.6), 150 mM NaCl] human serum
# (0.33 volumes; Cosmo Bio) was added on ice. The solutions were mixed well and transferred to a 37 °C thermostat. At various timepoints, aliquots were withdrawn and quenched with 2.3 volumes of methanol containing 30 mM iodoacetamide. The mixtures were incubated on
# ice for 15 min and then at 25 °C for 30 min. The samples were then centrifuged (15300 g for
# 5 min), and the supernatant (0.5 µL) was analyzed by LC/MS (section 2.5) using method 6
# 1 – 10 min 1 – 81% B, linear ramp
# Data analysis was conducted as for the trypsin digestion assays.
compound,measurement,value
"C=C1NC(=O)C(=C)NC(=O)[C@H](CCCCN)NC(=O)[C@H](CC(C)C)NC(=O)[C@H]([C@@H](C)O)NC(=O)[C@H](CCCCN)NC(=O)[C@H](Cc2ccc(O)cc2)NC(=O)[C@H]([C@@H](C)CC)NC(=O)[C@H](Cc2ccccc2)NC(=O)CNC(=O)[C@H](Cc2c[nH]c3ccccc23)NC(=O)c2ccc(-c3nc(C(=O)OC)cs3)nc2-c2csc(n2)C(=C)NC(=O)CNC1=O [TP1, reference compound] (WGFIYKTLK[Dha][Dha]G; linker N-C via X1)",half-life at 10 µM,2.3 ± 0.1 h
